Experimental data published in ChEMBL document CHEMBL5032495, “Discovery of Novel Tacrine-Pyrimidone Hybrids as Potent Dual AChE/GSK-3 Inhibitors for the Treatment of Alzheimer's Disease” (J Med Chem, 2021).
The source made the active and inactive calls. No cut-off for these calls is given here.

What was measured:
Acetylcholinesterase = target: T1, Acetylcholinesterase (Mus musculus, UniProt P21836); test: Inhibition of mouse AChE using acetylthiocholine iodide as substrate incubated for 20 mins by Ellman's method
T1 sequence (P21836 whole entry): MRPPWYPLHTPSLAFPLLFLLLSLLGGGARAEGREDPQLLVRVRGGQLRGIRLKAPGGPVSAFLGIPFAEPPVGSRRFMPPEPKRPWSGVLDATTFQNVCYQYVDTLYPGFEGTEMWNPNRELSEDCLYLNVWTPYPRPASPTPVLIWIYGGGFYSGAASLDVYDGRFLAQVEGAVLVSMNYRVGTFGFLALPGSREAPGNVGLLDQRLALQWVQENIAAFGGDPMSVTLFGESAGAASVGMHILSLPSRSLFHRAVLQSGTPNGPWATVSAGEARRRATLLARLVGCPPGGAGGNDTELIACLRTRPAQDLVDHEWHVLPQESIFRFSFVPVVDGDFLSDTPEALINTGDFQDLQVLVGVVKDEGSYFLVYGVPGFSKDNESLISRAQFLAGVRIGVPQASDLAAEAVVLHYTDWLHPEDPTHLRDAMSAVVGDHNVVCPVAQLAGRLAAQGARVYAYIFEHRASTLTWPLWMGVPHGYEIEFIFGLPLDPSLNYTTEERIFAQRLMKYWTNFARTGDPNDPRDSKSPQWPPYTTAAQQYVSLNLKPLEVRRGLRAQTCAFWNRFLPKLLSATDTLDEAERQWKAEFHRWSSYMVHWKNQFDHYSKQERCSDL

[1] = target: T2, Glycogen synthase kinase-3 beta (Homo sapiens, UniProt P49841); test: Inhibition of human recombinant GSK-3beta using prephosphorylated polypeptide as substrate incubated for 30 mins in presence of ATP by Kinase-Glo luminescence assay relative to control
Target sequence in this assay (P49841 whole entry, looked up): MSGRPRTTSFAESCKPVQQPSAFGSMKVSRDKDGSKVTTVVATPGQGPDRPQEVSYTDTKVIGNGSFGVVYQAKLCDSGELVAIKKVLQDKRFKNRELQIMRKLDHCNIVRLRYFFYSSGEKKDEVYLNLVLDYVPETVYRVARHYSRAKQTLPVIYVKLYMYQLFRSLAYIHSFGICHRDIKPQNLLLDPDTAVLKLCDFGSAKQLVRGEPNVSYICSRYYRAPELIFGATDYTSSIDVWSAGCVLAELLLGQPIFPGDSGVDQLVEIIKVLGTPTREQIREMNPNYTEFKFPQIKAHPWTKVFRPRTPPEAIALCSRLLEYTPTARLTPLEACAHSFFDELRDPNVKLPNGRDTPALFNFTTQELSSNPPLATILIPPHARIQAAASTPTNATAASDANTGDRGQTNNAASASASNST

[2] = Toxicity in ICR mouse assessed as emesis at 15 mg/kg, ip measured after 15 days; type: organism-based; details: in vivo, 360 h, time 15 day
[3] = Toxicity in ICR mouse assessed as diarrhea at 15 mg/kg, ip measured after 15 days; type: organism-based; details: in vivo, 360 h, time 15 day
[4] = Toxicity in ICR mouse assessed as swimming motility impairment at 15 mg/kg, ip measured after 15 days; type: organism-based; details: in vivo, 360 h, time 15 day
[5] = target: T2, Glycogen synthase kinase-3 beta
Target sequence in this assay (P49841 whole entry): as the sequence (P49841 whole entry, looked up) above

SH-SY5Y [6] = test: Neuroprotective activity against glyceraldehyde-induced neurotoxicity in human SH-SY5Y cells assessed as increase in cell viability at 0.5 to 5 uM incubated for 24 hrs by MTT assay; type: functional, cell-based; details: dose 0.5-5 µM
SH-SY5Y [7] = test: Neuroprotective activity in human SH-SY5Y cells assessed as prevention of glyceraldehyde-induced neurite shortening at 0.5 to 5 uM incubated for 1 hr by confocal microsocopic analysis; type: functional, cell-based; details: dose 0.5-5 µM
[8] = target: T3, Acetylcholinesterase (Mus musculus) (UniProt P21836); test: Inhibition of mouse AChE using acetylthiocholine iodide as substrate at 1 uM incubated for 20 mins by Ellman's method relative to control
T3 sequence (whole entry): T1 sequence (P21836 whole entry)

| SMILES | IC50 (Acetylcholinesterase) | inhibition [1] | IC50 [5] | other results |
| --- | --- | --- | --- | --- |
| Cn1c(NCCNc2c3c(nc4cc(F)ccc24)CCCC3)nc(-c2ccncc2)cc1=O | 3.9 µM | < 50% |  |  |
| COc1ccc(CNC(=O)Nc2ncc([N+](=O)[O-])s2)cc1 | > 40 µM |  |  |  |
| Cn1c(NCCNc2c3c(nc4ccc(Br)cc24)CCCC3)nc(-c2ccncc2)cc1=O | 15.8 µM | < 50% |  |  |
| Cn1c(NCCCCCCCNc2c3c(nc4ccccc24)CCCC3)nc(-c2ccncc2)cc1=O | 0.13 µM |  | 0.33 µM | Activity [2]: Non-Toxic; Activity [3]: Non-Toxic; Activity [4]: Non-Toxic |
| Cn1c(NCCNc2c3c(nc4cc(Cl)ccc24)CCCC3)nc(-c2ccncc2)cc1=O | 0.49 µM | < 50% |  |  |
| Cc1ccc2c(NCCCCCCCNc3nc(-c4ccncc4)cc(=O)n3C)c3c(nc2c1)CCCC3 | 145 µM | < 60% |  |  |
| Cn1c(NCCNc2c3c(nc4cc(F)ccc24)CCCC3)nc(-c2ccncn2)cc1=O | 0.18 µM | < 50% |  |  |
| Cn1c(NCCCCCCNc2c3c(nc4cc(Cl)ccc24)CCCC3)nc(-c2ccncc2)cc1=O | 53 µM | < 60% |  |  |
| Cn1c(NCCCCCCNc2c3c(nc4ccc(F)cc24)CCCC3)nc(-c2ccncc2F)cc1=O | 2210 µM |  | 154 µM |  |
| Cn1c(NCCNc2c3c(nc4ccc(Cl)cc24)CCCC3)nc(-c2ccncc2)cc1=O | 10.9 µM | < 50% |  |  |
| Cn1c(NCCNc2c3c(nc4cc(Cl)ccc24)CCCC3)nc(-c2ccncn2)cc1=O | 0.42 µM | < 50% |  |  |
| Cn1c(NCCCCCCCNc2c3c(nc4cc(Br)ccc24)CCCC3)nc(-c2ccncc2F)cc1=O | 58.1 µM |  | 91 µM |  |
| COc1ccc2c(NCCNc3nc(-c4ccncc4F)cc(=O)n3C)c3c(nc2c1)CCCC3 | 9.92 µM |  | 19 µM |  |
| Cn1c(NCCCCCCCNc2c3c(nc4cc(F)ccc24)CCCC3)nc(-c2ccncc2)cc1=O | 124 µM | < 60% |  |  |
| Cn1c(NCCCCNc2c3c(nc4ccccc24)CCCC3)nc(-c2ccncc2)cc1=O | 1.42 µM |  | 0.92 µM |  |
| Cn1c(NCCCCCCCNc2c3c(nc4cc(F)ccc24)CCCC3)nc(-c2ccncc2F)cc1=O | 134 µM |  | 104 µM |  |
| Cn1c(NCCCCCCNc2c3c(nc4cc(F)ccc24)CCCC3)nc(-c2ccncc2)cc1=O | 163 µM | < 60% |  |  |
| Cn1c(NCCNc2c3c(nc4ccccc24)CCCC3)nc(-c2ccncc2)cc1=O | 1.06 µM |  | 4.04 µM |  |
| Cn1c(NCCCCCCNc2c3c(nc4ccc(F)cc24)CCCC3)nc(-c2ccncc2)cc1=O | 2420 µM | < 60% |  |  |
| Cn1c(NCCCCCCCNc2c3c(nc4ccc(F)cc24)CCCC3)nc(-c2ccncc2)cc1=O | 1800 µM | < 60% |  |  |
| Cc1ccc2nc3c(c(NCCNc4nc(-c5ccncc5)cc(=O)n4C)c2c1)CCCC3 | 20 µM | < 50% |  |  |
| Cn1c(NCCCCCCNc2c3c(nc4cc(F)ccc24)CCCC3)nc(-c2ccncc2F)cc1=O | 134 µM |  | 174 µM |  |
| Cn1c(NCCNc2c3c(nc4ccc(Cl)cc24)CCCC3)nc(-c2ccncc2F)cc1=O | 9.8 µM |  | 8.13 µM |  |
| Cn1c(NCCCCCCCNc2c3c(nc4ccc(F)cc24)CCCC3)nc(-c2ccncc2F)cc1=O | 2380 µM |  | 96.1 µM |  |
| Cn1c(NCCCNc2c3c(nc4ccccc24)CCCC3)nc(-c2ccncc2)cc1=O | 2.85 µM | < 50% |  |  |
| Cn1c(NCCCCCNc2c3c(nc4ccccc24)CCCC3)nc(-c2ccncc2)cc1=O | 0.4 µM |  | 1.28 µM |  |

| SMILES | IC50 (Acetylcholinesterase) | inhibition [1] | IC50 [5] | other results |
| --- | --- | --- | --- | --- |
| Cn1c(NCCCCCCNc2c3c(nc4cc(Br)ccc24)CCCC3)nc(-c2ccncc2F)cc1=O | 70.3 µM |  | 179 µM |  |
| COc1ccc2c(NCCNc3nc(-c4ccncn4)cc(=O)n3C)c3c(nc2c1)CCCC3 | 23 µM | < 50% |  |  |
| Cn1c(NCCNc2c3c(nc4ccccc24)CCCC3)nc(-c2ccncc2F)cc1=O | 4.98 µM |  | 1.18 µM |  |
| Cn1c(NCCNc2c3c(nc4cc(Br)ccc24)CCCC3)nc(-c2ccncc2)cc1=O | 0.44 µM | < 50% |  |  |
| Cc1ccc2c(NCCCCCCCNc3nc(-c4ccncc4F)cc(=O)n3C)c3c(nc2c1)CCCC3 | 174 µM |  | 137 µM |  |
| Cn1c(NCCCCCCNc2c3c(nc4cc(Cl)ccc24)CCCC3)nc(-c2ccncc2F)cc1=O | 52.7 µM |  | 178 µM |  |
| O=c1sn(-c2cccc3ccccc23)c(=O)n1Cc1ccccc1 |  |  |  | Activity (SH-SY5Y [6]): Active; Activity (SH-SY5Y [7]): Active |
| Cn1c(NCCCCCCCNc2c3c(nc4cc(Cl)ccc24)CCCC3)nc(-c2ccncc2)cc1=O | 37.5 µM | < 60% |  |  |
| COc1ccc2nc3c(c(NCCNc4nc(-c5ccncc5)cc(=O)n4C)c2c1)CCCC3 | 15.7 µM | < 50% |  |  |
| Cc1ccc2c(NCCCCCCNc3nc(-c4ccncc4F)cc(=O)n3C)c3c(nc2c1)CCCC3 | 298 µM |  | 239 µM |  |
| Cn1c(NCCNc2c3c(nc4cc(C(F)(F)F)ccc24)CCCC3)nc(-c2ccncc2)cc1=O | 11.3 µM | < 50% |  |  |
| Cn1c(NCCNc2c3c(nc4ccc(F)cc24)CCCC3)nc(-c2ccncc2)cc1=O | 0.37 µM | < 50% |  |  |
| Cn1c(NCCCCCCNc2c3c(nc4ccccc24)CCCC3)nc(-c2ccncc2F)cc1=O | 631 µM |  | 126 µM |  |
| Cn1c(NCCNc2c3c(nc4cc(Cl)ccc24)CCCC3)nc(-c2ccncc2F)cc1=O | 0.16 µM |  | 14 µM |  |
| Cn1c(NCCNc2c3c(nc4ccccc24)CCCC3)nc(-c2ccncn2)cc1=O | 0.8 µM |  | 5.63 µM |  |
| COc1cc2c(cc1OC)C(=O)C(CC1CCN(Cc3ccccc3)CC1)C2 (stereo not given) [DONEPEZIL] |  |  | > 100 µM |  |
| Cn1c(NCCCCCCNc2c3c(nc4ccccc24)CCCC3)nc(-c2ccncc2)cc1=O | 0.12 µM |  | 0.52 µM |  |
| Cn1c(NCCNc2c3c(nc4cc(F)ccc24)CCCC3)nc(-c2ccncc2F)cc1=O | 0.73 µM |  | 11.9 µM |  |
| Cn1c(NCCNc2c3c(nc4ccc(C(C)(F)F)cc24)CCCC3)nc(-c2ccncc2)cc1=O |  | < 50% |  | inhibition [8]: < 50% |
| COc1ccc2c(NCCNc3nc(-c4ccncc4)cc(=O)n3C)c3c(nc2c1)CCCC3 | 8.3 µM | < 50% |  |  |
| Cn1c(NCCCCCCNc2c3c(nc4cc(Br)ccc24)CCCC3)nc(-c2ccncc2)cc1=O | 45 µM | < 60% |  |  |
| Cn1c(NCCCCCCCNc2c3c(nc4ccccc24)CCCC3)nc(-c2ccncc2F)cc1=O | 352 µM |  | 67.2 µM |  |
| Cn1c(NCCCCCCCNc2c3c(nc4cc(Br)ccc24)CCCC3)nc(-c2ccncc2)cc1=O | 39 µM | < 60% |  |  |
| Cn1c(NCCNc2c3c(nc4ccc(Cl)cc24)CCCC3)nc(-c2ccncn2)cc1=O | 18.8 µM | < 50% |  |  |
| Cc1ccc2c(NCCNc3nc(-c4ccncc4)cc(=O)n3C)c3c(nc2c1)CCCC3 | 1.89 µM | < 50% |  |  |
| Cc1ccc2c(NCCCCCCNc3nc(-c4ccncc4)cc(=O)n3C)c3c(nc2c1)CCCC3 | 239 µM | < 60% |  |  |
